Experimental data published in the supplement of paper PMC10307832.

Key:
Test in all cases: relative viability (nuclei count vs DMSO), 5 days (fraction); higher = more cells survive
A-427 = system: A-427
Method in brief: (§1)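 Lung cancer cell lines were pin-tool dosed in 1536-well plates on the day after seeding, with either a lone drug or a fixed anchor-drug dose plus five library-drug doses (not always all listed) in √10 steps. Nuclei were counted on 4× images after 5 days. Relative viability is the ratio of treated-well to vehicle-well nuclei counts, with each value a median of duplicate plates.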

HCC-15 = system: HCC-15
Method in brief: as §1

NCI-H2347 = system: NCI-H2347
Method in brief: as §1

PC-3 [JPC-3] = system: PC-3 [JPC-3]
Method in brief: as §1

NCI-H1975 = system: NCI-H1975
Method in brief: as §1

LC-2-ad = system: LC-2-ad
Method in brief: as §1

LXF-289 = system: LXF-289
Method in brief: as §1

HCC-78 = system: HCC-78
Method in brief: as §1

NCI-H1734 = system: NCI-H1734
Method in brief: as §1

NCI-H522 = system: NCI-H522
Method in brief: as §1

SW 1573 = system: SW 1573
Method in brief: as §1

NCI-H1792 = system: NCI-H1792
Method in brief: as §1

NCI-H1755 = system: NCI-H1755
Method in brief: as §1

NCI-H2126 = system: NCI-H2126
Method in brief: as §1

NCI-H2228 = system: NCI-H2228
Method in brief: as §1

NCI-H1915 = system: NCI-H1915
Method in brief: as §1

RERF-LC-KJ = system: RERF-LC-KJ
Method in brief: as §1

NCI-H647 = system: NCI-H647
Method in brief: as §1

NCI-H2342 = system: NCI-H2342
Method in brief: as §1

HOP-62 = system: HOP-62
Method in brief: as §1

SK-LU-1 = system: SK-LU-1
Method in brief: as §1

NCI-H358 = system: NCI-H358
Method in brief: as §1

**Q.** How did the relative viability (A-427; first compound 0.08 µM) turn out when `COc1nc(C)cnc1NS(=O)(=O)c1cccnc1-c1ccc(-c2nnco2)cc1` [Zibotentan] + O=C(c1cc(Cc2n[nH]c(=O)c3ccccc23)ccc1F)N1CCN(C(=O)C2CC2)CC1 [Olaparib] (partner 8 µM) was run?
**A.** 0.755

**Q.** What about the relative viability (A-427; first compound 0.253 µM) of the same molecule?
**A.** 0.704

**Q.** And the relative viability (A-427; first compound 0.8 µM)?
**A.** 0.64

**Q.** And the relative viability (A-427; first compound 2.53 µM)?
**A.** 0.799

**Q.** What about the relative viability (HCC-15; first compound 0.08 µM) of the same molecule?
**A.** 0.717

**Q.** And the relative viability (HCC-15; first compound 0.253 µM)?
**A.** 0.703

**Q.** And the relative viability (HCC-15; first compound 0.8 µM)?
**A.** 0.774

**Q.** What about the relative viability (HCC-15; first compound 2.53 µM) of the same molecule?
**A.** 0.649

**Q.** What about the relative viability (NCI-H2347; first compound 0.08 µM) of the same molecule?
**A.** 0.47

**Q.** And the relative viability (NCI-H2347; first compound 0.253 µM)?
**A.** 0.596

**Q.** What about the relative viability (NCI-H2347; first compound 0.8 µM) of the same molecule?
**A.** 0.635

**Q.** What about the relative viability (NCI-H2347; first compound 2.53 µM) of the same molecule?
**A.** 0.615

**Q.** What about the relative viability (PC-3 [JPC-3]; first compound 0.08 µM) of the same molecule?
**A.** 1.1

**Q.** What about the relative viability (PC-3 [JPC-3]; first compound 0.253 µM) of the same molecule?
**A.** 1.09

**Q.** And the relative viability (PC-3 [JPC-3]; first compound 0.8 µM)?
**A.** 1.21

**Q.** And the relative viability (PC-3 [JPC-3]; first compound 2.53 µM)?
**A.** 1.14

**Q.** And the relative viability (NCI-H1975; first compound 0.08 µM)?
**A.** 0.855

**Q.** And the relative viability (NCI-H1975; first compound 0.253 µM)?
**A.** 0.742

**Q.** And the relative viability (NCI-H1975; first compound 0.8 µM)?
**A.** 0.749

**Q.** And the relative viability (NCI-H1975; first compound 2.53 µM)?
**A.** 0.765

**Q.** What about the relative viability (LC-2-ad; first compound 0.08 µM) of the same molecule?
**A.** 0.68

**Q.** And the relative viability (LC-2-ad; first compound 0.253 µM)?
**A.** 0.682

**Q.** What about the relative viability (LC-2-ad; first compound 0.8 µM) of the same molecule?
**A.** 0.721

**Q.** And the relative viability (LC-2-ad; first compound 2.53 µM)?
**A.** 0.71

**Q.** And the relative viability (LXF-289; first compound 0.08 µM)?
**A.** 1.01

**Q.** What about the relative viability (LXF-289; first compound 0.253 µM) of the same molecule?
**A.** 1

**Q.** What about the relative viability (LXF-289; first compound 0.8 µM) of the same molecule?
**A.** 1.14

**Q.** And the relative viability (LXF-289; first compound 2.53 µM)?
**A.** 1.09

**Q.** And the relative viability (HCC-78; first compound 0.08 µM)?
**A.** 0.949

**Q.** What about the relative viability (HCC-78; first compound 0.253 µM) of the same molecule?
**A.** 0.748

**Q.** And the relative viability (HCC-78; first compound 0.8 µM)?
**A.** 0.719

**Q.** What about the relative viability (HCC-78; first compound 2.53 µM) of the same molecule?
**A.** 0.736

**Q.** What about the relative viability (NCI-H1734; first compound 0.08 µM) of the same molecule?
**A.** 0.593

**Q.** What about the relative viability (NCI-H1734; first compound 0.253 µM) of the same molecule?
**A.** 0.588

**Q.** And the relative viability (NCI-H1734; first compound 0.8 µM)?
**A.** 0.653

**Q.** And the relative viability (NCI-H1734; first compound 2.53 µM)?
**A.** 0.699

**Q.** And the relative viability (NCI-H522; first compound 0.08 µM)?
**A.** 0.65

**Q.** And the relative viability (NCI-H522; first compound 0.253 µM)?
**A.** 0.75

**Q.** And the relative viability (NCI-H522; first compound 0.8 µM)?
**A.** 0.681

**Q.** What about the relative viability (NCI-H522; first compound 2.53 µM) of the same molecule?
**A.** 0.703

**Q.** What about the relative viability (SW 1573; first compound 0.08 µM) of the same molecule?
**A.** 0.557

**Q.** And the relative viability (SW 1573; first compound 0.8 µM)?
**A.** 0.544

**Q.** What about the relative viability (SW 1573; first compound 2.53 µM) of the same molecule?
**A.** 0.459

**Q.** What about the relative viability (NCI-H1792; first compound 0.08 µM) of the same molecule?
**A.** 0.235

**Q.** What about the relative viability (NCI-H1792; first compound 0.253 µM) of the same molecule?
**A.** 0.408

**Q.** And the relative viability (NCI-H1792; first compound 0.8 µM)?
**A.** 0.323

**Q.** What about the relative viability (NCI-H1792; first compound 2.53 µM) of the same molecule?
**A.** 0.373

**Q.** What about the relative viability (NCI-H1755; first compound 0.08 µM) of the same molecule?
**A.** 0.893

**Q.** What about the relative viability (NCI-H1755; first compound 0.253 µM) of the same molecule?
**A.** 0.846

**Q.** And the relative viability (NCI-H1755; first compound 0.8 µM)?
**A.** 0.908

**Q.** What about the relative viability (NCI-H1755; first compound 2.53 µM) of the same molecule?
**A.** 0.907

**Q.** And the relative viability (NCI-H2126; first compound 0.08 µM)?
**A.** 0.945

**Q.** What about the relative viability (NCI-H2126; first compound 0.253 µM) of the same molecule?
**A.** 0.942

**Q.** What about the relative viability (NCI-H2126; first compound 0.8 µM) of the same molecule?
**A.** 0.89

**Q.** What about the relative viability (NCI-H2126; first compound 2.53 µM) of the same molecule?
**A.** 0.951

**Q.** And the relative viability (NCI-H2228; first compound 0.08 µM)?
**A.** 0.658

**Q.** And the relative viability (NCI-H2228; first compound 0.253 µM)?
**A.** 0.573

**Q.** What about the relative viability (NCI-H2228; first compound 0.8 µM) of the same molecule?
**A.** 0.863

**Q.** And the relative viability (NCI-H2228; first compound 2.53 µM)?
**A.** 0.924

**Q.** What about the relative viability (NCI-H1915; first compound 0.08 µM) of the same molecule?
**A.** 0.31

**Q.** And the relative viability (NCI-H1915; first compound 0.253 µM)?
**A.** 0.277

**Q.** And the relative viability (NCI-H1915; first compound 0.8 µM)?
**A.** 0.254

**Q.** And the relative viability (NCI-H1915; first compound 2.53 µM)?
**A.** 0.24

**Q.** And the relative viability (RERF-LC-KJ; first compound 0.08 µM)?
**A.** 0.832

**Q.** What about the relative viability (RERF-LC-KJ; first compound 0.253 µM) of the same molecule?
**A.** 0.802

**Q.** What about the relative viability (RERF-LC-KJ; first compound 0.8 µM) of the same molecule?
**A.** 0.921

**Q.** And the relative viability (RERF-LC-KJ; first compound 2.53 µM)?
**A.** 0.894

**Q.** What about the relative viability (NCI-H647; first compound 0.08 µM) of the same molecule?
**A.** 0.592

**Q.** And the relative viability (NCI-H647; first compound 0.253 µM)?
**A.** 0.421

**Q.** What about the relative viability (NCI-H647; first compound 0.8 µM) of the same molecule?
**A.** 0.665

**Q.** And the relative viability (NCI-H647; first compound 2.53 µM)?
**A.** 0.494

**Q.** What about the relative viability (NCI-H2342; first compound 0.08 µM) of the same molecule?
**A.** 0.407

**Q.** What about the relative viability (NCI-H2342; first compound 0.253 µM) of the same molecule?
**A.** 0.44

**Q.** What about the relative viability (NCI-H2342; first compound 0.8 µM) of the same molecule?
**A.** 0.504

**Q.** And the relative viability (NCI-H2342; first compound 2.53 µM)?
**A.** 0.389

**Q.** And the relative viability (HOP-62; first compound 0.08 µM)?
**A.** 0.429

**Q.** What about the relative viability (HOP-62; first compound 0.253 µM) of the same molecule?
**A.** 0.34

**Q.** What about the relative viability (HOP-62; first compound 0.8 µM) of the same molecule?
**A.** 0.503

**Q.** And the relative viability (HOP-62; first compound 2.53 µM)?
**A.** 0.502

**Q.** What about the relative viability (SK-LU-1; first compound 0.08 µM) of the same molecule?
**A.** 0.507

**Q.** What about the relative viability (SK-LU-1; first compound 0.253 µM) of the same molecule?
**A.** 0.477

**Q.** What about the relative viability (SK-LU-1; first compound 0.8 µM) of the same molecule?
**A.** 0.579

**Q.** And the relative viability (SK-LU-1; first compound 2.53 µM)?
**A.** 0.615

**Q.** And the relative viability (NCI-H358; first compound 0.08 µM)?
**A.** 0.735

**Q.** What about the relative viability (NCI-H358; first compound 0.253 µM) of the same molecule?
**A.** 0.323

**Q.** What about the relative viability (NCI-H358; first compound 2.53 µM) of the same molecule?
**A.** 0.689
